The values below come from patent US8598365B2, “Herbicides” (Syngenta Limited, priority 2007, dated 2013).

SMILES strings stand for the structures.

What all share (assay type): in vivo
Test [1] relates to Alopecurus myosuroides (ALOMY). Description: Example A pre-emergence herbicidal activity. As to conditions: rate 250 g/ha, evaluated 19 or 20 days later. As for the experimental part:
(§1) Seeds of a variety of test species were sown in standard soil in pots. After cultivation for one day (pre-emergence) or after 10 days cultivation (post-emergence) under controlled conditions in a glasshouse, the plants were sprayed with an aqueous spray solution derived from the formulation of the technical active ingredient in 0.6 ml acetone and 45 ml formulation solution containing 10.6% Emulsogen EL (Registry number 61791-12-6), 42.2% N-methylpyrrolidone, 42.2% dipropylene glycol monomethyl ether (Registry number 34590-94-8) and 0.2% X-77 (Registry number 11097-66-8). The test plants were then grown in a greenhouse under optimum conditions until, 14 or 15 days later for post-emergence and 19 or 20 days for pre-emergence, the test was evaluated (100=total damage to plant; 0=no damage to plant). Alopecurus myosuroides (ALOMY), Avena fatua (AVEFA), Lolium perenne (LOLPE), Setaria faberi (SETFA), Digitaria sanguinalis (DIGSA), Echinochloa crus-galli (ECHCG)

In test [2] the test system is Avena fatua (AVEFA). The experiment in a line: Example A pre-emergence herbicidal activity. As to conditions: rate 250 g/ha, evaluated 19 or 20 days later. As for the experimental part: as §1
The test system of test [3] is Digitaria sanguinalis (DIGSA). The experiment in a line: Example A pre-emergence herbicidal activity. The settings on record: rate 250 g/ha, evaluated 19 or 20 days later. As for the experimental part:
as §1

Test [4] has as its system Echinochloa crus-galli (ECHCG). The experiment in a line: Example A pre-emergence herbicidal activity. As to conditions: rate 250 g/ha, evaluated 19 or 20 days later. The protocol:
as §1

Test [5] concerns Lolium perenne (LOLPE). Description: Example A pre-emergence herbicidal activity. As to conditions: rate 250 g/ha, evaluated 19 or 20 days later. As for the experimental part: as §1
Test [6] has as its system Setaria faberi (SETFA). The experiment in a line: Example A pre-emergence herbicidal activity. As to conditions: rate 250 g/ha, evaluated 19 or 20 days later. The protocol:
as §1

For test [7], the system named is Alopecurus myosuroides (ALOMY). Description: Example A post-emergence herbicidal activity. As to conditions: rate 125 g/ha, evaluated 14 or 15 days later. The protocol: as §1
Test [8] has as its system Avena fatua (AVEFA). Description: Example A post-emergence herbicidal activity. The settings on record: rate 125 g/ha, evaluated 14 or 15 days later. As for the experimental part: as §1
For test [9], the system named is Digitaria sanguinalis (DIGSA). The experiment in a line: Example A post-emergence herbicidal activity. The settings on record: rate 125 g/ha, evaluated 14 or 15 days later. As for the experimental part: as §1
Test [10] has as its system Echinochloa crus-galli (ECHCG). Description: Example A post-emergence herbicidal activity. The settings on record: rate 125 g/ha, evaluated 14 or 15 days later. As for the experimental part:
as §1

In test [11] the test system is Lolium perenne (LOLPE). Description: Example A post-emergence herbicidal activity. As to conditions: rate 125 g/ha, evaluated 14 or 15 days later. As for the experimental part: as §1
For test [12], the system named is Setaria faberi (SETFA). The experiment in a line: Example A post-emergence herbicidal activity. As to conditions: rate 125 g/ha, evaluated 14 or 15 days later. The protocol: as §1

Consider `CCc1sc(-c2ccc(Cl)cc2)nc1C1C(=O)[C@@H]2CC[C@@H](C2)C1=O` (stereo partly drawn) [Compound T19, 3-[2-(4-chlorophenyl)-5-ethylthiazol-4-yl]bicyclo[3.2.1]octane-2,4-dione], for which the “Pre-Emergence Activity ALOMY (100=total damage to plant; 0=no damage to plant)” value in test [1] worked out at 100. In addition, in the test on Avena fatua (AVEFA) [2], the “Pre-Emergence Activity AVEFA (100=total damage to plant; 0=no damage to plant)” value is recorded as 100. The “Pre-Emergence Activity DIGSA (100=total damage to plant; 0=no damage to plant)” value in test [3] is recorded as 100. For the same molecule, in [4], the “Pre-Emergence Activity ECHCG (100=total damage to plant; 0=no damage to plant)” value amounted to 100. Further, the “Pre-Emergence Activity LOLPE (100=total damage to plant; 0=no damage to plant)” value with Lolium perenne (LOLPE) [5] was 100. For the same molecule, the “Pre-Emergence Activity SETFA (100=total damage to plant; 0=no damage to plant)” value with Setaria faberi (SETFA) [6] turned out to be 100. For the same molecule, the “Post-Emergence Activity ALOMY (100=total damage to plant; 0=no damage to plant)” value in test [7] is on record as 100. The “Post-Emergence Activity AVEFA (100=total damage to plant; 0=no damage to plant)” value in the test on Avena fatua (AVEFA) [8] is listed as 100. Moreover, the “Post-Emergence Activity DIGSA (100=total damage to plant; 0=no damage to plant)” value in test [9] was found to be 100. Besides, the “Post-Emergence Activity ECHCG (100=total damage to plant; 0=no damage to plant)” value in [10] was determined as 100. The “Post-Emergence Activity LOLPE (100=total damage to plant; 0=no damage to plant)” value in the test on Lolium perenne (LOLPE) [11] is reported as 80. Besides, the “Post-Emergence Activity SETFA (100=total damage to plant; 0=no damage to plant)” value in the test with Setaria faberi (SETFA) [12] was 100.

On to `Cc1sc(-c2ccc(Cl)cc2)cc1C1C(=O)[C@@H]2CC[C@@H](C2)C1=O` (stereo partly drawn) [Compound T23], for which the “Pre-Emergence Activity ALOMY (100=total damage to plant; 0=no damage to plant)” value in test [1] came to 30. Moreover, in the test with Avena fatua (AVEFA) [2], the “Pre-Emergence Activity AVEFA (100=total damage to plant; 0=no damage to plant)” value was determined as 50. Further, in test [3], the “Pre-Emergence Activity DIGSA (100=total damage to plant; 0=no damage to plant)” value turned out to be 0. In [4], the “Pre-Emergence Activity ECHCG (100=total damage to plant; 0=no damage to plant)” value is 0. Besides, the “Pre-Emergence Activity LOLPE (100=total damage to plant; 0=no damage to plant)” value in the test with Lolium perenne (LOLPE) [5] came out at 0. The “Pre-Emergence Activity SETFA (100=total damage to plant; 0=no damage to plant)” value in the test on Setaria faberi (SETFA) [6] amounted to 0. Besides, the “Post-Emergence Activity ALOMY (100=total damage to plant; 0=no damage to plant)” value in [7] was found to be 80. Moreover, in the test on Avena fatua (AVEFA) [8], the “Post-Emergence Activity AVEFA (100=total damage to plant; 0=no damage to plant)” value was determined as 70. The “Post-Emergence Activity DIGSA (100=total damage to plant; 0=no damage to plant)” value in test [9] was 90. In test [10], the “Post-Emergence Activity ECHCG (100=total damage to plant; 0=no damage to plant)” value turned out to be 90. Further, the “Post-Emergence Activity LOLPE (100=total damage to plant; 0=no damage to plant)” value in the test with Lolium perenne (LOLPE) [11] came out at 70. Moreover, the “Post-Emergence Activity SETFA (100=total damage to plant; 0=no damage to plant)” value in the test with Setaria faberi (SETFA) [12] was found to be 100.
